Source: patent publication US20230167093A1, “COMPOUNDS AND METHODS FOR MODULATING SPLICING” (REMIX THERAPEUTICS INC., priority 2020, published 2023)
Values belong to the compound of their own block, whether it stands above or below them.

Tests used:
Format in all cases: cell-based
[1] = tested on: HTT CJ mRNA; test: Gene panel canonical junction qPCR assay, HTT; settings: protocol as above, concentration having 50% response in CJ decrease, read-out: HTT IC50 (decrease in CJ mRNA levels)
Experimental: (§1) Compounds described herein were used to modulate RNA transcript abundance in cells. The expression of a target mRNA was measured by detecting the formation of an exon-exon junction in the canonical transcript (CJ). A compound mediated exon-inclusion event was detected by observing an increase in formation of a new junction with an alternative exon (AJ). Real-time qPCR assays were used to detect these splicing switches and interrogate the potency of various compounds towards different target genes. A high-throughput real time quantitative PCR (RT-qPCR) assay was developed to measure these two isoforms of the mRNA (CJ and AJ) for an exemplary gene, HTT, together with a control housekeeping gene, GAPDH or GUSB or PPIA, used for normalization. Briefly, the A673 or K562 cell line was treated with various compounds described herein (e.g., compounds of Formula (I) or (II)). After treatment, the levels of the HTT mRNA targets were determined from each sample of cell lysate by cDNA synthesis followed by qPCR.
(§2) The A673 cell line was cultured in DMEM with 10% FBS. Cells were diluted with full growth media and plated in a 96-well plate (15,000 cells in 100 ul media per well). The plate was incubated at 37° C. with 5% CO2 for 24 hours to allow cells to adhere. An 11-point 3-fold serial dilution of the compounds was made in DMSO then diluted in media in an intermediate plate. Compounds were transferred from the intermediate plate to the cell plate with the top dose at a final concentration of 10 uM in the well. Final DMSO concentration was kept at or below 0.25%. The cell plate was returned to the incubator at 37° C. with 5% CO2 for an additional 24 hours.
(§3) The K562 cell line was cultured in IMDM with 10% FBS. For K562, cells were diluted with full growth media and plated in either a 96-well plate (50,000 cells in 50 uL media per well) or a 384-well plate (8,000-40,000 cells in 45 uL media per well). An 11-point 3-fold serial dilution of the compounds were made in DMSO then diluted in media in an intermediate plate. Compound was transferred from the intermediate plate to the cell plate with the top dose at a final concentration of 10 uM in the well. Final DMSO concentration was kept at or below 0.25%. Final volume was 100 uL for 96-well plate and 50 uL for 384-well plate. The cell plate was then placed in an incubator at 37° C. with 5% CO2 for 24 hours.
(§4) The cells were then gently washed with 50 uL-100 uL cold PBS before proceeding to addition of lysis buffer. 30 uL-50 uL of room temperature lysis buffer with DNAse I (and optionally RNAsin) was added to each well. Cells were shaken/mixed thoroughly at room temperature for 5-10 minutes for lysis to take place and then 3 uL-5 uL of room temperature stop solution was added and wells were shaken/mixed again. After 2-5 minutes, the cell lysate plate was transferred to ice for RT-qPCR reaction setup. The lysates could also be frozen at −80° C. for later use.
(§5) In some cases, a direct lysis buffer was used. An appropriate volume of 3× lysis buffer (10 mM Tris, 150 mM NaCl, 1.5%-2.5% Igepal and 0.1-1 U/uL RNAsin, pH 7.4) was directly added to either K562 or A673 cells in media and mixed by pipetting 3 times. The plates were then incubated at room temperature with shaking/rocking for 20-50 minutes to allow for lysis to take place. After this time, the cell lysate plate was transferred to ice to set up for the RT-qPCR reactions. The lysates could also be frozen at −80° C. for later use.
(§6) To set up 10 uL RT-qPCR reactions, cell lysates were transferred to 384-well qPCR plates containing the master mix according to the table below. The plates were sealed, gently vortexed, and spun down before the run. The volumes were adjusted accordingly in some instances where the reaction was carried in 20 uL. The table below summarizes the components of the RT-qPCR reactions:
(§7) The RT-qPCR reaction was performed using a QuantStudio (ThermoFisher) under the following fast cycling conditions. […]

[2] = tested on: HTT CJ mRNA; test: RT-qPCR splicing assay, HTT canonical junction (CJ) mRNA decrease; settings: A673 or K562 cells, 24 hours compound treatment, top dose 10 uM; concentration having 50% response in CJ decrease
Experimental: as §1, §2, §3, §4, §5, §6, §7

[3] = tested on: Target C CJ mRNA; test: Gene panel canonical junction qPCR assay, Target C; settings: protocol as above, concentration having 50% response in CJ decrease, read-out: Target C IC50 (decrease in CJ mRNA levels)
Experimental: as §1, §2, §3, §4, §5, §6, §7

[4] = tested on: HTT AJ mRNA; test: RT-qPCR splicing assay, HTT alternative junction (AJ) mRNA increase; settings: A673 or K562 cells, 24 hours compound treatment, top dose 10 uM; concentration having 50% response in AJ increase
Experimental: as §1, §2, §3, §4, §5, §6, §7

[5] = tested on: SMN2 CJ mRNA; test: Gene panel canonical junction qPCR assay, SMN2; settings: protocol as above, concentration having 50% response in CJ decrease, read-out: SMN2 IC50 (decrease in CJ mRNA levels)
Experimental: as §1, with “After treatment, the levels of the HTT mRNA targets were determined from each sample of cell lysate by cDNA synthesis followed by qPCR.” left out
as §2, §3, §4, §5, §6
The RT-qPCR reaction was performed using a QuantStudio (ThermoFisher) under the following fast cycling conditions. All samples and standards were analyzed at least in duplicate. […]

- IC50 [1]: > 10 µM
- IC50 [3]: > 10 µM
- IC50 [5]: > 10 µM
Compound: Cc1cc(-c2ccc3ncn(C4CCNCC4)c(=O)c3c2)cc2cn(C)nc12 [Compound 169, 6-(2,7-dimethyl-2H-indazol-5-yl)-3-(piperidin-4-yl)quinazolin-4(3H)-one]
- AC50 [2]: > 10 µM
- AC50 [4]: > 10 µM

- IC50 [1]: 1 to 10 µM
- IC50 [3]: 1 to 10 µM
- IC50 [5]: 1 to 10 µM
Compound: Cc1cn2nc(-n3cnc4ccc(N5CCN(C)CC5)cc4c3=O)cc(C)c2n1 [Compound 202, 3-(2,8-dimethylimidazo[1,2-b]pyridazin-6-yl)-6-(4-methylpiperazin-1-yl)quinazolin-4(3H)-one]
- AC50 [2]: 1 to 10 µM
- AC50 [4]: 1 to 10 µM

- IC50 [1]: > 10 µM
- IC50 [3]: > 10 µM
- IC50 [5]: > 10 µM
Compound: CN1CCC(Nc2ccc3ncn(-c4ccc5nn(C)cc5c4)c(=O)c3c2)CC1 [Compound 171, 3-(2-methyl-2H-indazol-5-yl)-6-((1-methylpiperidin-4-yl)amino)quinazolin-4(3H)-one]
- AC50 [2]: > 10 µM
- AC50 [4]: > 10 µM

- IC50 [1]: > 10 µM
- IC50 [3]: > 10 µM
- IC50 [5]: > 10 µM
Compound: Cc1cc(-c2ccc3ncn(C4CCN(C)CC4)c(=O)c3c2)cc2cn(C)nc12 [Compound 170, 6-(2,7-dimethyl-2H-indazol-5-yl)-3-(1-methylpiperidin-4-yl)quinazolin-4(3H)-one]
- AC50 [2]: > 10 µM
- AC50 [4]: > 10 µM

- IC50 [1]: > 10 µM
- IC50 [5]: > 10 µM
Compound: CN1CCN(c2ccc3ncn(-c4ccc5nn(C)cc5c4)c(=O)c3c2)CC1 [Compound 154, 3-(2-methyl-2H-indazol-5-yl)-6-(4-methylpiperazin-1-yl)quinazolin-4(3H)-one]
- AC50 [2]: > 10 µM
- AC50 [4]: > 10 µM

- IC50 [1]: > 10 µM
- IC50 [3]: > 10 µM
- IC50 [5]: > 10 µM
Compound: Cc1cn2cc(-n3cnc4ccc(N5CCNCC5)cc4c3=O)cc(F)c2n1 [Compound 195, 3-(8-fluoro-2-methylimidazo[1,2-a]pyridin-6-yl)-6-(piperazin-1-yl)quinazolin-4(3H)-one]
- AC50 [2]: > 10 µM
- AC50 [4]: > 10 µM

- IC50 [1]: > 10 µM
- IC50 [5]: > 10 µM
Compound: Cn1cc2cc(-n3cnc4ccc(N5CCNCC5)cc4c3=O)ccc2n1 [Compound 155, 3-(2-methyl-2H-indazol-5-yl)-6-(piperazin-1-yl)quinazolin-4(3H)-one]
- AC50 [2]: > 10 µM
- AC50 [4]: > 10 µM

The next lines start with the compound.

Compound: CN1CCC(N(C)c2ccc3ncn(-c4cc(F)c5nn(C)cc5c4)c(=O)c3c2)CC1 [Compound 199, 3-(7-fluoro-2-methyl-2H-indazol-5-yl)-6-(methyl(1-methylpiperidin-4-yl)amino)quinazolin-4(3H)-one]
- IC50 [1]: > 10 µM
- AC50 [2]: > 10 µM
- IC50 [3]: > 10 µM
- AC50 [4]: > 10 µM
- IC50 [5]: > 10 µM

Compound: CN1[C@H]2CC[C@@H]1C=C(c1ccc3ncn(-c4ccc5nn(C)cc5c4)c(=O)c3c1)C2 [Compound 168, 3-(2-methyl-2H-indazol-5-yl)-6-((1R,5S)-8-methyl-8-azabicyclo[3.2.1]oct-2-en-3-yl)quinazolin-4(3H)-one]
- IC50 [1]: > 10 µM
- AC50 [2]: > 10 µM
- IC50 [3]: > 10 µM
- AC50 [4]: > 10 µM
- IC50 [5]: > 10 µM

Compound: Cc1cn2cc(-n3cnc4ccc(N(C)C5CCNCC5)cc4c3=O)cc(F)c2n1 [Compound 200, 3-(8-fluoro-2-methylimidazo[1,2-a]pyridin-6-yl)-6-(methyl(piperidin-4-yl)amino)quinazolin-4(3H)-one]
- IC50 [1]: > 10 µM
- AC50 [2]: > 10 µM
- IC50 [3]: > 10 µM
- AC50 [4]: > 10 µM
- IC50 [5]: > 10 µM

Compound: Cc1cc(-c2ccc3c(=O)[nH]c(N4CCNCC4)nc3c2)cc2cn(C)nc12 [Compound 211, 7-(2,7-dimethyl-2H-indazol-5-yl)-2-(piperazin-1-yl)quinazolin-4(3H)-one]
- IC50 [1]: > 10 µM
- AC50 [2]: > 10 µM
- IC50 [3]: > 10 µM
- AC50 [4]: > 10 µM
- IC50 [5]: > 10 µM

Compound: Cn1cc2cc(-n3cnc4ccc(C5=CCNCC5)cc4c3=O)ccc2n1 [Compound 151, 3-(2-methyl-2H-indazol-5-yl)-6-(1,2,3,6-tetrahydropyridin-4-yl)quinazolin-4(3H)-one]
- IC50 [1]: > 10 µM
- AC50 [2]: > 10 µM
- AC50 [4]: > 10 µM
- IC50 [5]: > 10 µM
